Reference: patent US5393742A, “Preparation for treating renal disease” (MECT Corporation, priority 1990, dated 1995)

Tested on: Male ddy mice
Assay: Simplified acute toxicity test of N-acetylneuraminates in mice by intravenous injection
Assay type: in vivo
Method: Simplified acute toxicity test:
A simplified acute toxicity test of N-acetylneuraminates in mice by intravenous injection was carried out as follows.
Lithium-, potassium-, barium- and magnesium- salts of N-acetylneuraminic acid were used (all were from MECT Corporation).
Body weights at the start of the test: 17.7-21.1 g
The number of animals at each level: 3 mice
(3) Room temperature: 23±1° C. - Humidity: 55±7%
The above-mentioned test compounds were dissolved in physiological saline solution to make a 0.2 ml solution per 20 g of body weight in a mouse as an injection fluid and injected into the tail vein. The doses were 500, 1,000 and 2,000 mg/kg.

CC(=O)N[C@H]1[C@H]([C@H](O)[C@H](O)CO)OC(O)(C(=O)O)C[C@@H]1O (some centres unmarked) [Magnesium N-acetylneuraminate]
The number of deaths per day course (500 mg/kg i.v., 1 hrs): 0 | The number of deaths per day course (500 mg/kg i.v., 3 hrs): 0 | The number of deaths per day course (500 mg/kg i.v., 6 hrs): 0 | The number of deaths per day course (500 mg/kg i.v., 24 hrs): 0 | The number of deaths per day course (500 mg/kg i.v., 2 days): 0 | The number of deaths per day course (500 mg/kg i.v., 3 days): 0 | The number of deaths per day course (500 mg/kg i.v., 4 days): 0 | The number of deaths per day course (500 mg/kg i.v., 5 days): 0 | The number of deaths per day course (500 mg/kg i.v., 6 days): 0 | Final Lethality (500 mg/kg i.v., 7 days): 0/3 | The number of deaths per day course (500 mg/kg i.v., 7 days): 0 | Final Lethality (1000 mg/kg i.v., 7 days): 3/3 | Final Lethality (2000 mg/kg i.v., 7 days): 3/3 | Deaths (in words) (1,000 and 2,000 mg/kg i.v.): all of the 3 mice died

CC(=O)N[C@H]1[C@H]([C@H](O)[C@H](O)CO)OC(O)(C(=O)[O-])C[C@@H]1O.[Li+] (some centres unmarked) [Lithium N-acetylneuraminate]
The number of deaths per day course (500 mg/kg i.v., 1 hrs): 0 | The number of deaths per day course (500 mg/kg i.v., 3 hrs): 0 | The number of deaths per day course (500 mg/kg i.v., 6 hrs): 0 | The number of deaths per day course (500 mg/kg i.v., 24 hrs): 0 | The number of deaths per day course (500 mg/kg i.v., 2 days): 0 | The number of deaths per day course (500 mg/kg i.v., 3 days): 0 | The number of deaths per day course (500 mg/kg i.v., 4 days): 0 | The number of deaths per day course (500 mg/kg i.v., 5 days): 0 | The number of deaths per day course (500 mg/kg i.v., 6 days): 0 | Final Lethality (500 mg/kg i.v., 7 days): 0/3 | The number of deaths per day course (500 mg/kg i.v., 7 days): 0 | Final Lethality (1000 mg/kg i.v., 7 days): 0/3 | The number of deaths per day course (1000 mg/kg i.v., 7 days): 0 | The number of deaths per day course (1000 mg/kg i.v., 1 hrs): 0 | The number of deaths per day course (1000 mg/kg i.v., 3 hrs): 0 | The number of deaths per day course (1000 mg/kg i.v., 6 hrs): 0 | The number of deaths per day course (1000 mg/kg i.v., 24 hrs): 0 | The number of deaths per day course (1000 mg/kg i.v., 2 days): 0 | The number of deaths per day course (1000 mg/kg i.v., 3 days): 0 | The number of deaths per day course (1000 mg/kg i.v., 4 days): 0 | The number of deaths per day course (1000 mg/kg i.v., 5 days): 0 | The number of deaths per day course (1000 mg/kg i.v., 6 days): 0 | Final Lethality (2000 mg/kg i.v., 7 days): 0/3 | The number of deaths per day course (2000 mg/kg i.v., 7 days): 0 | The number of deaths per day course (2000 mg/kg i.v., 1 hrs): 0 | The number of deaths per day course (2000 mg/kg i.v., 3 hrs): 0 | The number of deaths per day course (2000 mg/kg i.v., 6 hrs): 0 | The number of deaths per day course (2000 mg/kg i.v., 24 hrs): 0 | The number of deaths per day course (2000 mg/kg i.v., 2 days): 0 | The number of deaths per day course (2000 mg/kg i.v., 3 days): 0 | The number of deaths per day course (2000 mg/kg i.v., 4 days): 0 | The number of deaths per day course (2000 mg/kg i.v., 5 days): 0 | The number of deaths per day course (2000 mg/kg i.v., 6 days): 0
